Results reported in ChEMBL document CHEMBL3046477, “Carbamate derivatives of felbamate as potential anticonvulsant agents” (Med Chem Res, 2010).
The source made the active and inactive calls. The calls are words filed in the database; no cut-off is given here.

Key:
Rattus norvegicus [1] = experiment: Protective index, ratio of TD50 for po dosed Rattus norvegicus (rat) to ED50 for po dosed rat by subcutaneous pentylenetetrazole seizure test; type: functional
Rattus norvegicus [2] = experiment: Protective index, ratio of TD50 for po dosed Rattus norvegicus (rat) to ED50 for po dosed rat by maximal electroshock seizures test; type: functional
Rattus norvegicus [3] = experiment: Neurotoxicity in Rattus norvegicus (rat) assessed as minimal motor impairment at 20 mg/kg, ip at 60 min by rotorod test; type: toxicity, organism-based; parameters: dose 20 mg/kg, route intraperitoneal; conditions: in vivo, 1 h
Rattus norvegicus [4] = experiment: Neurotoxicity in Rattus norvegicus (rat) assessed as minimal motor impairment at 20 mg/kg, ip at 30 min by rotorod test; type: toxicity, organism-based; parameters: dose 20 mg/kg, route intraperitoneal; conditions: in vivo, 0.5 h
Rattus norvegicus [5] = experiment: Neurotoxicity in Rattus norvegicus (rat) assessed as minimal motor impairment at 20 mg/kg, ip at 5 min by rotorod test; type: toxicity, organism-based; parameters: dose 20 mg/kg, route intraperitoneal; conditions: in vivo
Rattus norvegicus [6] = experiment: Anticonvulsant activity in Rattus norvegicus (rat) assessed as protection against maximal electroshock-induced seizure at 20 mg/kg, ip at 10 min; type: functional, organism-based; parameters: dose 20 mg/kg
Mus musculus [7] = experiment: Anticonvulsant activity in Mus musculus (mouse) assessed as protection against maximal electroshock-induced seizure up to 300 mg/kg, ip; type: functional, organism-based; parameters: dose 300 mg/kg
[8] = Neurotoxicity in po dosed Rattus norvegicus (rat) assessed as minimal motor impairment by rotorod test; type: toxicity, organism-based; conditions: in vivo
Rattus norvegicus [9] = experiment: Anticonvulsant activity in po dosed Rattus norvegicus (rat) assessed as protection against subcutaneous pentylenetetrazole-induced seizure; type: functional
Rattus norvegicus [10] = experiment: Anticonvulsant activity in po dosed Rattus norvegicus (rat) assessed as protection against maximal electroshock-induced seizure; type: functional
Mus musculus [11] = experiment: Anticonvulsant activity in Mus musculus (mouse) assessed as protection against subcutaneous pentylenetetrazole-induced seizure up to 300 mg/kg, ip; type: functional, organism-based; parameters: dose 300 mg/kg
Mus musculus [12] = experiment: Anticonvulsant activity in ip dosed Mus musculus Swiss Webster (mouse) assessed as protection against subcutaneous pentylenetetrazole-induced seizure at 0.5 hr; type: functional
Mus musculus [13] = experiment: Anticonvulsant activity in ip dosed Mus musculus Swiss Webster (mouse) assessed as protection against maximal electroshock-induced seizure at 0.5 hr; type: functional
Rattus norvegicus [14] = experiment: Anticonvulsant activity in Rattus norvegicus (rat) assessed as protection against maximal electroshock-induced seizure at 20 mg/kg, ip at 60 min; type: functional, organism-based; parameters: dose 20 mg/kg
Rattus norvegicus [15] = experiment: Neurotoxicity in Rattus norvegicus (rat) assessed as minimal motor impairment at 20 mg/kg, ip at 15 min by rotorod test; type: toxicity, organism-based; parameters: dose 20 mg/kg, route intraperitoneal; conditions: in vivo, 0.25 h
Rattus norvegicus [16] = experiment: Neurotoxicity in Rattus norvegicus (rat) assessed as minimal motor impairment at 20 mg/kg, ip at 10 min by rotorod test; type: toxicity, organism-based; parameters: dose 20 mg/kg, route intraperitoneal; conditions: in vivo
Rattus norvegicus [17] = experiment: Neurotoxicity in Rattus norvegicus (rat) at 300 mg/kg, ip; type: toxicity, organism-based; parameters: dose 300 mg/kg, route intraperitoneal; conditions: in vivo
Rattus norvegicus [18] = experiment: Anticonvulsant activity Rattus norvegicus (rat) assessed as reduction of hippocampus kindling at 100 mg/kg, ip; type: functional, organism-based; parameters: dose 100 mg/kg
Mus musculus [19] = experiment: Anticonvulsant activity in po dosed Mus musculus Swiss Webster (mouse) assessed as protection against maximal electroshock-induced seizure at 0.5 hr; type: functional
Mus musculus [20] = experiment: Anticonvulsant activity in Mus musculus (mouse) assessed as protection against maximal electroshock-induced seizure at 300 mg/kg, ip; type: functional, organism-based; parameters: dose 300 mg/kg
Mus musculus [21] = experiment: Anticonvulsant activity in po dosed Mus musculus (mouse) assessed as protection against maximal electroshock-induced seizure; type: functional
Mus musculus [22] = experiment: Anticonvulsant activity in Mus musculus Swiss Webster (mouse) assessed as protection against subcutaneous pentylenetetrazole-induced seizure up to 300 mg/kg, ip at 0.5 hr; type: functional, organism-based; parameters: dose 300 mg/kg
Mus musculus [23] = experiment: Anticonvulsant activity in ip dosed Mus musculus (mouse) assessed as protection against subcutaneous pentylenetetrazole-induced seizure; type: functional
Mus musculus [24] = experiment: Anticonvulsant activity in ip dosed Mus musculus (mouse) assessed as protection against maximal electroshock-induced seizures; type: functional

## C[C@H](CO)NC(=O)OCc1ccccc1
Rattus norvegicus [1]
  Ratio TD50/ED50: 2
Rattus norvegicus [2]
  Ratio TD50/ED50: >21
Rattus norvegicus [3]
  Activity: Non-toxic
Rattus norvegicus [4]
  Activity: Non-toxic
Rattus norvegicus [5]
  Activity: Non-toxic
Rattus norvegicus [6]
  Activity: inactive
Mus musculus [7]
  Activity: inactive
[8]
  TD50: > 500 mg/kg
Rattus norvegicus [9]
  ED50: > 250 mg/kg
Rattus norvegicus [10]
  ED50: 23.9 mg/kg
Mus musculus [11]
  Activity: inactive
Mus musculus [12]
  ED50: 226 mg/kg
Mus musculus [13]
  ED50: 60.1 mg/kg
Rattus norvegicus [14]
  Activity: inactive
Rattus norvegicus [15]
  Activity: Non-toxic
Rattus norvegicus [16]
  Activity: Non-toxic
Rattus norvegicus [17]
  Activity: Toxic
Rattus norvegicus [18]
  Activity: inactive

## CCCC(C)(COC(N)=O)COC(N)=O [MEPROBAMATE]
Mus musculus [19]
  ED50: 165 mg/kg
Mus musculus [12]
  ED50: 66 mg/kg
Mus musculus [13]
  ED50: 127 mg/kg

## O=C(N[C@@H](CO)Cc1ccccc1)OCc1ccccc1
Mus musculus [11]
  Activity: inactive
Mus musculus [20]
  Activity: Active
Mus musculus [12]
  Anticonvulsant activity: Active
Mus musculus [13]
  ED50: 14.9 mg/kg

## NC(=O)OCC(CO)c1ccccc1 (stereo not given)
Mus musculus [21]
  ED50: 154 mg/kg

## NC(=O)OCCc1ccccc1 [PHENYLETHYL CARBAMATE]
Mus musculus [22]
  Activity: inactive
Mus musculus [13]
  ED50: 17.7 mg/kg

## O=C(NCCO)OCc1ccccc1
Mus musculus [11]
  Activity: inactive
Mus musculus [20]
  Activity: Active
Mus musculus [12]
  ED50: 170 mg/kg
Mus musculus [13]
  ED50: 25.2 mg/kg

## O=C(N[C@H](CO)Cc1ccccc1)OCc1ccccc1
Mus musculus [11]
  Activity: inactive
Mus musculus [20]
  Activity: Active
Mus musculus [12]
  Activity: Active
Mus musculus [13]
  ED50: 33.5 mg/kg

## NC(=O)OCC(COC(N)=O)c1ccccc1 [FELBAMATE]
Mus musculus [19]
  ED50: 52 mg/kg
[8]
  TD50: > 500 mg/kg
Rattus norvegicus [9]
  ED50: > 250 mg/kg
Rattus norvegicus [10]
  ED50: 25.3 mg/kg
Mus musculus [23]
  ED50: 126 mg/kg
Mus musculus [24]
  ED50: 35.5 mg/kg
Mus musculus [12]
  ED50: 548 mg/kg
Mus musculus [13]
  ED50: 35 mg/kg
Rattus norvegicus [18]
  Activity: inactive
